Marks after values point to notes of the source that are not given here.
Experiments:
GMCSF = test: Nickel-induced GMCSF release from human keratinocytes (ELISA); format: cell-based; details: 48 hours
Protocol: (§1) The soothing potential of silybin, piperin, rhapontin, nortrachelogenine and arctiin was evaluated on primary culture of human keratinocytes treated by a nickel salt (nickel chloride, Sigma) according to the method of Ermolli M, et al. “Nickel, cobalt and chromium-induced cytotoxicity and intracellular accumulation in human HaCaT keratinocytes” [Toxicology. 2001 Feb. 21; 159(1-2): 23-31] and compared to hydrocortisone (HOC; Sigma, France).
(§2) After a growth phase in medium enriched by fetal calf serum, the cells were treated with the nickel salt and with the test compounds. After 48 hours at 37° C., CO2=5%, the level of released GMCSF (ELISA method) and cell viability (MTT test) were determined.

[1] = test system: primary culture of human keratinocytes; test: Cell viability (MTT test) of nickel-treated human keratinocytes; details: nickel salt alone at 0.75 mM, 48 hours
Protocol: as §1, §2

[2] = first set, Ni 0.75 mM (=100) + test compound at 0.001%, mean +/- SEM on 3 separate assays

For `COc1cc([C@H]2Oc3cc([C@H]4Oc5cc(O)cc(O)c5C(=O)[C@@H]4O)ccc3O[C@@H]2CO)ccc1O` [silybin], the GMCSF released (GMCSF; first set, Ni 0.75 mM (=100) + test compound at 0.0003%, mean +/- SEM on 3 separate assays) was 88 +/− 19 percentage referring to control, the GMCSF released (GMCSF; [2]) was 48 +/− 12* percentage referring to control and the GMCSF released (GMCSF; first set, Ni 0.75 mM (=100) + test compound at 0.001%, mean +/- SEM on 3 separate assays, listed as Silybin) was “significantly lowered”.
With `[Cl][Ni][Cl]` [Nickel (Ni), nickel chloride] the MTT ([1]; first set, mean +/- SEM on 3 separate assays) was 68 +/− 9 percentage referring to control, the MTT ([1]; first set, mean +/- SEM on 3 separate assays, listed as nickel) was “distinctly decreased cell viability” and the MTT ([1]; second set, mean on 1 assay in triplicate) was 33 percentage referring to control.
In the case of `COc1ccc(/C=C/c2cc(O)cc(O[C@@H]3O[C@H](CO)[C@@H](O)[C@H](O)[C@H]3O)c2)cc1O` [rhapontin, 3,3′,5-Trihydroxy-4′-methoxystilbene 3-b-D-glucopyranoside], the GMCSF released (GMCSF; second set, Ni 0.75 mM (=100) + test compound at 0.01%, mean on 1 assay in triplicate) was 72 percentage referring to control and the GMCSF released (GMCSF; second set, Ni 0.75 mM (=100) + test compound at 0.01%, mean on 1 assay in triplicate, listed as Rhapontin) was “lowered”.
With `C[C@]12CCC(=O)C=C1CC[C@@H]1[C@@H]2[C@@H](O)C[C@@]2(C)[C@H]1CC[C@]2(O)C(=O)CO` [HOC, hydrocortisone, reference compound] the GMCSF released (GMCSF; second set, Ni 0.75 mM (=100) + test compound at 1 μM, mean on 1 assay in triplicate) was 52 percentage referring to control.
`O=C(/C=C/C=C/c1ccc2c(c1)OCO2)N1CCCCC1` [piperine, (E,E)-1-[5-(1,3-benzodioxol-5-yl)-1-oxo-2,4-pentadienyl]piperidine] was tested, and the GMCSF released (GMCSF; [2]) was 79 +/− 14 percentage referring to control, the GMCSF released (GMCSF; first set, Ni 0.75 mM (=100) + test compound at 0.003%, mean +/- SEM on 3 separate assays) was 29 +/− 13* percentage referring to control and the GMCSF released (GMCSF; first set, Ni 0.75 mM (=100) + test compound at 0.003%, mean +/- SEM on 3 separate assays, listed as Piperine) was “significantly lowered”.

Reference: patent publication US20090298783A1, “Cosmetic Compositions” (Cognis IPanagement GmbH, priority 2006, published 2009)
